Like-named read-outs stand apart in the source and are kept apart here.
Target: T1, Human M4 (Homo sapiens, UniProt P08173)
T1 construct: expressed in transfected cells; host or cells: CHO-K1 (Chinese hamster ovary, ATCC), stably expressing M4 and Gqi5
T1 sequence (P08173 1-479): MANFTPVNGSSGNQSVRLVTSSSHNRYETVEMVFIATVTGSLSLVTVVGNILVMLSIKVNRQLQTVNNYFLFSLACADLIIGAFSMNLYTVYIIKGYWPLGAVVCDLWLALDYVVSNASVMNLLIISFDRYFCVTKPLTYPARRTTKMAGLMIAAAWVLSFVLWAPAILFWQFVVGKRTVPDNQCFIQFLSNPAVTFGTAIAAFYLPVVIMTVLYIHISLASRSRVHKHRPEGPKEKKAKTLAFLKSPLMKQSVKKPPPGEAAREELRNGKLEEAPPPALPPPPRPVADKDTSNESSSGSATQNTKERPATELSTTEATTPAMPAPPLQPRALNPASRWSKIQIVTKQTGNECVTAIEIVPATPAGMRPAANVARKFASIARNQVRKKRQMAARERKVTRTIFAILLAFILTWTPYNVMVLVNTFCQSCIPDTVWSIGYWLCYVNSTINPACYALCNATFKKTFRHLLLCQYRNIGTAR
Experiment: mAChR M4 cell-based functional assay (calcium flux, EC80 acetylcholine response)
Experimental: Human or rat M4 cDNA, along with the chimeric G protein Gqi5, were transfected into Chinese hamster ovary (CHO-K1) cells purchased from the American Type Culture Collection using Lipofectamine2000. M4/Gqi5/CHO cells were grown in Ham's F-12 medium containing […] heat-inactivated fetal bovine serum (FBS), 20 mM HEPES, 500 μg/mL G418 sulfate, and 200 μg/mL Hygromycin B.
For high throughput measurement of agonist-evoked increases in intracellular calcium, CHO-K1 cells stably expressing muscarinic receptors were plated in growth medium lacking G418 and hygromycin at 15,000 cells/20 μL/well in Greiner 384-well black-walled, tissue culture (TC)-treated, clear-bottom plates (VWR). Cells were incubated overnight at 37° C. and 500 CO2. […] Compound master plates were formatted in a 10 point concentration-response curve (CRC) format (1:3 dilutions) in 100% DMSO with a starting concentration of 10 or 1 mM using a BRAVO liquid handler (Agilent). Test compound CRCs were then transferred to daughter plates (240 nL) using the Echo acoustic plate reformatter (Labcyte, Sunnyvale, CA) and then diluted into assay buffer (40 μL) to a 2× stock using a Thermo Fisher Combi (Thermo Fisher Scientific, Waltham, MA).
Calcium flux was measured using the Functional Drug Screening System (FDSS) 6000 or 7000 (Hamamatsu Corporation, Tokyo, Japan) as an increase in the fluorescent static ratio. Compounds were applied to cells (20 μL, 2×) using the automated system of the FDSS at 2 seconds into the protocol and the data were collected at 1 Hz. […] Agonist activity was analyzed as a concentration-dependent increase in calcium mobilization upon compound addition. Positive allosteric modulator activity was analyzed as a concentration-dependent increase in the EC20 acetylcholine response. Antagonist activity was analyzed as a concentration-dependent decrease in the EC80 acetylcholine response; for the purposes of the tables herein, an IC50 (inhibitory concentration 50) was calculated as a concentration-dependent decrease of the response elicited by an EC80 concentration of acetylcholine. Concentration-response curves were generated using a four-parameter logistical equation in XLFit curve fitting software (IDBS, Bridgewater, NJ) for Excel (Microsoft, Redmond, WA) or Prism (GraphPad Software, Inc., San Diego, CA) or the Dotmatics software platform (Dotmatics, Bishop's Stortford, UK).
Compounds were synthesized as described above.

[1] = M4/Gqi5/CHO-K1 cells, % ACh maximum at 30 μM, read-out: Human M4 Emin (% ACh maximum at 30 μM)
[2] = M4/Gqi5/CHO-K1 cells, decrease of the response to an EC80 concentration of acetylcholine, read-out: Human M4 IC50

Row | SMILES | remaining activity at 30 µM [1] | IC50 [2] | IC50 | remaining activity at 30 µM (CHO-K1, read-out: Human M4 Emin (% ACh maximum at 30 μM))
1 | [2H]C([2H])([C@H]1CCCOC1)N1C[C@H]2C[C@H](Nc3ccc(-c4ccc5nn(C)cc5c4C)nn3)C[C@H]2C1 [compound 14, (3aR,5s,6aS)-N-(6-(2,4-dimethyl-2H-indazol-5-yl)pyridazin-3-yl)-2-(((R)-tetrahydro-2H-pyran-3-yl)methyl-d2)octahydrocyclopenta-[c]pyrrol-5-amine] | 3% | 0.79 nM |  | 
2 | [2H]C([2H])(C1CCOCC1(C)C)N1C[C@H]2C[C@H](Nc3ccc(-c4ccc5nn(C)cc5c4C)nn3)C[C@H]2C1 (stereo partly drawn) [compound 17, (3aR,5s,6aS)-N-(6-(2,4-dimethyl-2H-indazol-5-yl)pyridazin-3-yl)-2-((3,3-dimethyltetrahydro-2H-pyran-4-yl)methyl-d2)octahydrocyclopenta[c]pyrrol-5-amine] | 3% | 0.9 nM |  | 
3 | Cc1cc2nn(C)cc2cc1-c1ccc(N[C@H]2C[C@@H]3CN(CC4CCOCC4)C[C@@H]3C2)nn1 [compound 1, (3aR,5s,6aS)-N-(6-(2,6-dimethyl-2H-indazol-5-yl)pyridazin-3-yl)-2-((tetrahydro-2H-pyran-4-yl)methyl)octahydrocyclopenta[c]pyrrol-5-amine] | 3% | 2.7 nM |  | 
4 | Cc1cc(N[C@H]2C[C@@H]3CN(CC4CCOCC4)C[C@@H]3C2)nnc1-c1ccc2nn(C)cc2c1C [compound 27, (3aR,5s,6aS)-N-(6-(2,4-dimethyl-2H-indazol-5-yl)-5-methylpyridazin-3-yl)-2-((tetrahydro-2H-pyran-4-yl)methyl)octahydrocyclopenta[c]pyrrol-5-amine] | 3% | 0.76 nM |  | 
5 | Cc1c(-c2cc(C(F)F)c(N[C@H]3C[C@@H]4CN(CC5CCOCC5)C[C@@H]4C3)nn2)ccc2nn(C)cc12 [compound 29, (3aR,5s,6aS)-N-(4-(difluoromethyl)-6-(2,4-dimethyl-2H-indazol-5-yl)pyridazin-3-yl)-2-((tetrahydro-2H-pyran-4-yl)methyl)octahydrocyclopenta[c]pyrrol-5-amine] | 3% |  |  | 
6 | [2H]C([2H])(C1CCOCC1)N1C[C@H]2C[C@H](Nc3nnc(-c4ccc5nn(C)cc5c4C)cc3C)C[C@H]2C1 [compound 28, (3aR,5s,6aS)-N-(6-(2,4-dimethyl-2H-indazol-5-yl)-4-methylpyridazin-3-yl)-2-((tetrahydro-2H-pyran-4-yl)methyl-d2)octahydrocyclopenta[c]pyrrol-5-amine] | 17% |  |  | 
7 | Cc1c(-c2ccc(N[C@H]3C[C@@H]4CN(Cc5ccccn5)C[C@@H]4C3)nn2)ccc2nn(C)cc12 [compound 4, (3aR,5s,6aS)-N-(6-(2,4-dimethyl-2H-indazol-5-yl)pyridazin-3-yl)-2-(pyridin-2-ylmethyl)octahydrocyclopenta[c]pyrrol-5-amine] | 3% | 2.2 nM |  | 
8 | Cc1c(-c2cc(C(F)(F)F)c(N[C@H]3C[C@@H]4CN(CC5CCOCC5)C[C@@H]4C3)nn2)ccc2nn(C)cc12 [compound 30, (3aR,5s,6aS)-N-(6-(2,4-dimethyl-2H-indazol-5-yl)-4-(trifluoromethyl)-pyridazin-3-yl)-2-((tetrahydro-2H-pyran-4-yl)methyl)-octahydrocyclopenta[c]pyrrol-5-amine] | 2% |  |  | 
9 | Cc1c(-c2nnc(N[C@H]3C[C@@H]4CN(CC5CCOCC5)C[C@@H]4C3)c3ccsc23)ccc2nn(C)cc12 [compound 25, 7-(2,4-dimethyl-2H-indazol-5-yl)-N-((3aR,5s,6aS)-2-((tetrahydro-2H-pyran-4-yl)methyl)-octahydrocyclopenta[c]pyrrol-5-yl)-thieno[2,3-d]pyridazin-4-amine] |  |  | 0.5 nM | 7%
10 | [2H]C([2H])(C1CCOCC1)N1C[C@H]2C[C@H](Nc3ccc(-c4ccc5nn(C([2H])([2H])[2H])cc5c4C(F)F)nn3)C[C@H]2C1 [compound 22, (3aR,5s,6aS)-N-(6-(4-(difluoromethyl)-2-(methyl-d3)-2H-indazol-5-yl)pyridazin-3-yl)-2-((tetrahydro-2H-pyran-4-yl)methyl-d2)octahydrocyclopenta[c]pyrrol-5-amine] | 4% | 0.65 nM |  | 

Second part, led by results:

Row | remaining activity at 30 µM [1] | IC50 [2] | SMILES | IC50 | remaining activity at 30 µM (CHO-K1, read-out: Human M4 Emin (% ACh maximum at 30 μM))
11 | 3% | 0.42 nM | [2H]C([2H])([C@H]1COCCO1)N1C[C@H]2C[C@H](Nc3ccc(-c4ccc5nn(C)cc5c4C)nn3)C[C@H]2C1 [compound 15, (3aR,5s,6aS)-2-(((S)-1,4-dioxan-2-yl)-methyl-d2)-N-(6-(2,4-dimethyl-2H-indazol-5-yl)-pyridazin-3-yl)octahydrocyclopenta[c]pyrrol-5-amine] |  | 
12 | 3% | 0.59 nM | [2H]C([2H])(C1CCOCC1)N1C[C@H]2C[C@H](Nc3ccc(-c4ccc5nn(C)cc5c4C)nn3)C[C@H]2C1 [compound 6, (3aR,5s,6aS)-N-(6-(2,4-dimethyl-2H-indazol-5-yl)pyridazin-3-yl)-2-((tetrahydro-2H-pyran-4-yl)methyl-d2)octahydrocyclopenta[c]pyrrol-5-amine] |  | 
13 | 3% | 0.21 nM | [2H]C1([2H])CC(C([2H])([2H])N2C[C@H]3C[C@H](Nc4nnc(-c5ccc6nn(C)cc6c5C)cc4C)C[C@H]3C2)CC([2H])([2H])O1 [compound 24, (3aR,5s,6aS)-N-(6-(2,4-dimethyl-2H-indazol-5-yl)-4-methylpyridazin-3-yl)-2-((tetrahydro-2H-pyran-4-yl-2,2,6,6-d4)methyl-d2)octahydrocyclopenta[c]pyrrol-5-amine] |  | 
14 | 2% | 0.36 nM | [2H]C([2H])([C@@H]1CCCCO1)N1C[C@H]2C[C@H](Nc3ccc(-c4ccc5nn(C)cc5c4C)nn3)C[C@H]2C1 [compound 12, (3aR,5s,6aS)-N-(6-(2,4-dimethyl-2H-indazol-5-yl)pyridazin-3-yl)-2-(((S)-tetrahydro-2H-pyran-2-yl)methyl-d2)octahydrocyclopenta[c]pyrrol-5-amine] |  | 
15 | 3% | 0.37 nM | [2H]C([2H])(C1CCOCC1)N1C[C@H]2C[C@H](Nc3ccc(-c4ccc5nn(C([2H])([2H])[2H])cc5c4C)nn3)C[C@H]2C1 [compound 9, (3aR,5s,6aS)-N-(6-(4-methyl-2-(methyl-d3)-2H-indazol-5-yl)pyridazin-3-yl)-2-((tetrahydro-2H-pyran-4-yl)methyl-d2)octahydrocyclopenta[c]pyrrol-5-amine] |  | 
16 | 4% | 0.49 nM | [2H]C([2H])([C@@H]1CCCOC1)N1C[C@H]2C[C@H](Nc3ccc(-c4ccc5nn(C)cc5c4C)nn3)C[C@H]2C1 [compound 13, (3aR,5s,6aS)-N-(6-(2,4-dimethyl-2H-indazol-5-yl)pyridazin-3-yl)-2-(((S)-tetrahydro-2H-pyran-3-yl)methyl-d2)octahydrocyclopenta[c]pyrrol-5-amine] |  | 
17 | 2% | 0.36 nM | [2H]C([2H])(C1CCOCC1)N1C[C@H]2C[C@H](Nc3ccc(-c4ccc5nn(C(F)F)cc5c4C)nn3)C[C@H]2C1 [compound 10, (3aR,5s,6aS)-N-(6-(2-(difluoromethyl)-4-methyl-2H-indazol-5-yl)pyridazin-3-yl)-2-((tetrahydro-2H-pyran-4-yl)methyl-d2)octahydrocyclopenta[c]pyrrol-5-amine] |  | 
